Laboratory results published in patent US20260373103A1, “COMPOSITIONS AND METHODS FOR PREVENTING CARDIOMYOPATHY” (OHIO STATE INNOVATION FOUNDATION, priority 2022, published 2026).

Tests used:
TOM40 = TOM40 protein level/degradation after A/O, immunoblotting; type: cell-based; conditions: ST-539; HeLa-Parkin/USP30, A/O 18 h
Method: HeLa cells and mouse embryonic fibroblasts (MEFs) were grown in Dulbecco's minimum essential medium (DMEM) with 10% fetal bovine serum (FBS) supplemented with penicillin-streptomycin. HeLa Parkin, PINK1 KO cells, WT and MFN2 KO cells were previously described. Cells stably expressing USP30 were generated using lentiviral vectors of pLVX-Puro-Myc-USP30. The USP30 plasmid was obtained from Addgene. The plasmid was transferred into a lentiviral vector and viral particles were prepared by transiently transfecting HEK293T using standard methods. For the drug treatment experiments, cells were incubated in medium containing a mixture of 5 μM oligomycin and 5 μM antimycin A (A/O; see figures for treatment times). In 18 h treatment, A/O were used in combination with 10 μM quinolyl-valyl-O-methylaspartyl-[−2,6-difluorophenoxy]-methyl ketone (QVD), a broad-spectrum caspase inhibitor. […]
The enzymatic activity of Parkin is to function as an E3 ubiquitin ligase. […] We then employed this cellular assay to monitor TOM20 turnover, and analyzed compounds known to be associated with the ubiquitination process for inhibitors of USP30. […] Initially to assess mitophagy in cells, we monitored the degradation of the inner membrane protein, the translocase of the inner membrane 23 (TIM23), by immunoblotting (FIG. 5A). […]

USP30 = conditions: in vitro; compound and similar structures; cited from earlier work
[1] = Plasma pharmacokinetics after i.p. injection; type: in vivo; conditions: mice, 25 mg/kg i.p.
Method: ST-539 was dissolved into 1% DMSO in Sesame oil and injected intraperitoneally (i.p.) at doses of 25 mg/kg. Serial blood samples were collected at 0.083, 0.25, 0.5, 1, 2, 4 and 8 hours post dosing. Mice were euthanized at 24 hours post dosing. A terminal blood sample was collected by cardiac puncture followed by harvesting the brain and heart. Transcardial perfusion was performed prior to brain collection. The blood samples were placed in microtubes pretreated with K2EDTA as an anticoagulant and kept on ice until centrifugation. The tissue samples were rinsed using cold distilled water to remove blood, blotted dry, weighed and stored on dry ice until LC/MS/MS analysis. Plasma was transferred into polypropylene tubes or 96-well plates, quick frozen on dry ice, and stored at −70±10 °C until LC/MS/MS analysis.

[2] = tested on: HeLa-Parkin or HeLa-Parkin/USP30 cells; experiment: Mitochondrial membrane potential (TMRM signal); type: cell-based; conditions: ST-539 3 to 10 μg/ml
Method: ΔΨm was measured using a fluorescence microplate reader (BioTek Instruments) in cells preincubated with Tetramethylrhodamine methyl ester (TMRM, Thermo Scientific) following manufacturer's instructions. Cells were washed in PBS before resuspension in Hank's balanced salt solution (HBSS; 156 mM NaCl, 3 mM KCl, 2 mM MgSO4, 1.25 mM KH2PO4, 2 mM CaCl2), 10 mM glucose and 10 mM HEPES; pH adjusted to 7.35 with NaOH) (1.0×10^6 cells/ml) containing 50 nM TMRM. For each individual experiment, average TMRM fluorescence was normalized to control cells.
We initially analyzed mitochondrial function using Tetramethylrhodamine (TMRM), a dye requiring mitochondrial membrane potential to accumulate within the mitochondria.

wild type MEFs = experiment: Mitochondrial morphology, confocal imaging; type: cell-based, mouse; conditions: ST-539 3 or 10 μg/ml, 24 h
Method: (§1) HeLa cells and mouse embryonic fibroblasts (MEFs) were grown in Dulbecco's minimum essential medium (DMEM) with 10% fetal bovine serum (FBS) supplemented with penicillin-streptomycin. HeLa Parkin, PINK1 KO cells, WT and MFN2 KO cells were previously described. Cells stably expressing USP30 were generated using lentiviral vectors of pLVX-Puro-Myc-USP30. The USP30 plasmid was obtained from Addgene. The plasmid was transferred into a lentiviral vector and viral particles were prepared by transiently transfecting HEK293T using standard methods. For the drug treatment experiments, cells were incubated in medium containing a mixture of 5 μM oligomycin and 5 μM antimycin A (A/O; see figures for treatment times). In 18 h treatment, A/O were used in combination with 10 μM quinolyl-valyl-O-methylaspartyl-[−2,6-difluorophenoxy]-methyl ketone (QVD), a broad-spectrum caspase inhibitor. ST51000539 (ST-539) was purchased from Tim Tec, Inc. Other chemicals were from Sigma-Aldrich (St. Louis, MO, USA). For FACS analysis, cells stably expressing mt-Keima were incubated in medium containing a mixture of […] antimycin A for 1.5 h. Prior to A/O treatment, cultures were treated with DMSO or ST-539 at 3 μg/ml. Cells were trypsinized, washed once with PBS buffer and then resuspended into 500 μl of PBS prior to analysis using a BD Fortessa flow cytometer as previously described.

Mfn2^−/− MEF cells = experiment: Mitochondrial morphology, confocal imaging; type: cell-based, mouse; conditions: 3 or 10 μg/ml ST-539, 24 h
Method: as §1

Q: Which TOM40 degradation (TOM40) does the source give for CC(C)(C)NS(=O)(=O)c1cccc2c(NC(=O)C(Cc3ccccc3)NC(=O)c3ccccc3)cccc12 (centres unmarked) [ST-539] here?
A: The TOM40 degradation was “restored TIM23 and TOM40 degradation”.

Q: What about the “USP30 enzyme function inhibition” value (USP30) of the same compound?
A: The value was “selectively inhibit USP30 enzyme function in vitro”.

Q: What about the “area under the plasma drug concentration-time curve (AUC)” value [1] of the same compound?
A: The value was ~ 4.2 μg·h/ml.

Q: What about the “half-life (T1/2)” value [1] of the same compound?
A: Its value is “about 3.85 hr”.

Q: What about the “maximum plasma concentration (Cmax)” value [1] of the same compound?
A: Its value is “about 1.4 μg/ml”.

Q: And the “time to reach peak plasma concentration (Tmax)” value [1]?
A: Its value is 1.33 h.

Q: And the AUC0-inf ([1]; plasma)?
A: Its AUC0-inf is 4240 ng·h/mL.

Q: And the AUC0-last ([1]; plasma)?
A: The AUC0-last was 4162 ng·h/mL.

Q: What about the Cmax ([1]; plasma) of the same compound?
A: Its Cmax is 1427 ng/mL.

Q: What about the MRT0-inf ([1]; plasma) of the same compound?
A: Its MRT0-inf is 4.27 h.

Q: What about the MRT0-last ([1]; plasma) of the same compound?
A: Its MRT0-last is 3.86 h.

Q: And the T1/2 ([1]; plasma)?
A: The T1/2 was 3.85 h.

Q: What about the Tlast ([1]; plasma) of the same compound?
A: Its Tlast is 24.0 h.

Q: What about the Tmax ([1]; plasma) of the same compound?
A: Its Tmax is 1.33 h.

Q: What about the “TMRM staining (mitochondrial membrane potential)” value [2] of the same compound?
A: The value was “did not block TMRM staining”.

Q: What about the mitochondrial morphology (wild type MEFs) of the same compound?
A: Its mitochondrial morphology is “failed to change the mitochondrial morphology”.

Q: What about the elongation of mitochondria (Mfn2^−/− MEF cells) of the same compound?
A: The elongation of mitochondria was “did not induce the elongation of mitochondria significantly”.
